Measurements reported in the supplement of paper PMC8671470.

Tests used:
Conditions in all cases: 72 h
[1] = system: myeloid leukemia patient primary cells Pat.3; assay: area under dose-response curve (viability, 1 nM-10 uM) (fraction (0-1)); higher = more sensitive
Procedure: (§1)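 AUC (0–1, higher = more sensitive) of the 5-point dose–response (1 nM–10 µM, 72 h, CellTiter-Glo) in primary AML/CML patient mononuclear cells. 0.030103 is the floor for inactive compounds.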

[2] = system: myeloid leukemia patient primary cells Pat.5; assay: as above
Procedure: as §1

[3] = system: myeloid leukemia patient primary cells Pat.1; assay: as above
Procedure: as §1

[4] = system: myeloid leukemia patient primary cells Pat.7; assay: as above
Procedure: as §1

[5] = system: myeloid leukemia patient primary cells Pat.2; assay: as above
Procedure: as §1

[6] = system: myeloid leukemia patient primary cells Pat.9; assay: as above
Procedure: as §1

[7] = system: myeloid leukemia patient primary cells Pat.13; assay: as above
Procedure: as §1

[8] = system: myeloid leukemia patient primary cells Pat.4; assay: as above
Procedure: as §1

[9] = system: myeloid leukemia patient primary cells Pat.8; assay: as above
Procedure: as §1

[10] = system: myeloid leukemia patient primary cells Pat.15; assay: as above
Procedure: as §1

[11] = system: myeloid leukemia patient primary cells Pat.10; assay: as above
Procedure: as §1

[12] = system: myeloid leukemia patient primary cells Pat.12; assay: as above
Procedure: as §1

[13] = system: myeloid leukemia patient primary cells Pat.11; assay: cell viability (% survival relative to DMSO control); higher = less cytotoxic
In short: (§2)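 Thawed, Ficoll-purified mononuclear cells from AML or CML patients in RPMI 1640 with 10% FBS were seeded at 10,000 cells/well on 384-well plates pre-printed with 70 compounds at five tenfold concentrations, 1–10,000 nM, in duplicate, for 72 h. Viability was read by CellTiter-Glo and normalised to DMSO and 10 μM proteasome-inhibitor wells. Where given, area under the curve came from four-parameter log-logistic fits (drc, PharmacoGx R packages).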

[14] = system: myeloid leukemia patient primary cells Pat.5; assay: as above
In short: as §2

[15] = system: myeloid leukemia patient primary cells Pat.1; assay: as above
In short: as §2

[16] = system: myeloid leukemia patient primary cells Pat.2; assay: as above
In short: as §2

[17] = system: myeloid leukemia patient primary cells Pat.9; assay: as above
In short: as §2

[18] = system: myeloid leukemia patient primary cells Pat.13; assay: as above
In short: as §2

HL-60 [19] = assay: area under dose-response curve (viability, 1 nM-10 uM) (fraction (0-1)); higher = more sensitive
In short: (§3)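 Four-parameter log-logistic fits in drc and PharmacoGx supplied area under the curve where it is given. Underlying viability came from CellTiter-Glo, normalised to DMSO and proteasome-inhibitor wells, with the proteasome inhibitor at 10 μM. HL-60 cells in RPMI 1640 plus 10% FBS had been rescreened against the full library at five tenfold concentrations of 1–10,000 nM, in duplicate on 384-well plates, with DMSO or 100 nM of one of three metabolic inhibitors, for 72 h at 37 °C, 5% CO2.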

HL-60 [20] = assay: cell viability (% survival relative to DMSO control); higher = less cytotoxic
In short: as §3

NS(=O)(=O)c1ccc(S(=O)(=O)Nc2cccc3c(Cl)c[nH]c23)cc1 [Indisulam]
Conditions	area under dose-response curve
[1]	0.137
[2]	0.379
[3]	0.128
[4]	0.228
[5]	< 0.0301
[6]	0.227
[7]	0.167
[8]	0.29
[9]	0.0654
[10]	0.0789
[11]	< 0.0301
[12]	< 0.0301

Conditions	area under dose-response curve, co-treatment: AZD3965 100 nM	area under dose-response curve, co-treatment: DMSO vehicle	area under dose-response curve, co-treatment: GSK2194069 100 nM	area under dose-response curve, co-treatment: pictilisib 100 nM	cell viability, 1 nM [%]	cell viability, 10 nM [%]	cell viability, 100 nM [%]	cell viability, 1000 nM [%]	cell viability, 10000 nM [%]
HL-60 [19]	< 0.0301	< 0.0301	< 0.0301	< 0.0301	–	–	–	–	–
[13]	–	–	–	–	93.9	> 100	> 100	86.3	72.1
[14]	–	–	–	–	47.7	70.8	62.1	17.9	12.4
[15]	–	–	–	–	94.5	> 100	94.1	65.2	48.8
[16]	–	–	–	–	> 100	88.2	95.8	96.9	67.1
[17]	–	–	–	–	47.8	84	81.1	40.9	24.6
[18]	–	–	–	–	92.6	91.3	98	57.4	44.8

cell viability [%], HL-60 [20]
Conditions	0.001 µM	0.01 µM	0.1 µM	1 µM	10 µM
co-treatment: AZD3965 100 nM	97.4	97.92	98.8	110	89.8
co-treatment: DMSO vehicle	96.4	95	101	104	92.2
co-treatment: GSK2194069 100 nM	101	101	100	105	90.9
co-treatment: pictilisib 100 nM	110	95.2	104	112.7	77.3
